Numbered stars: 1 amine (or outer) side, 2 acyl side, 3 side chain; on linkers, the order of the positions; unused ones are H or OH. Square brackets hold non-standard residues; d marks the D form. Side chains are listed from the residue outwards. Peptide text beside a SMILES is read from it. * marks the point of attachment. C18 diacid = O=C(O)CCCCCCCCCCCCCCCCC(=O)*; γGlu = O=C(O)[C@H](CCC(=O)[*:2])N[*:1]; Orn = NCCC[C@H](N)C(=O)O; AEEA = NCCOCCOCC(=O)O
Key:
[1] = target: glucagon receptor (Homo sapiens, UniProt P47871); assay: cell-based
Experimental: The cells (14000 per well) were incubated (37° C., 5% CO2) overnight in 384-well plates. Next day the cells were loaded with a calcium responsive dye that only distributed into the cytoplasm. Probenecid, an inhibitor of the organic anion transporter, was added to prevent the dye from leaving the cell. A PDE inhibitor was added to prevent formatted cAMP from being degraded. […] End point data were collected after 6 minutes. An increase in intracellular cAMP was proportional to an increased in calcium concentrations in the cytoplasm. […] EC50-values were calculated in Prism5.

[2] = ThT fibrillation assay (lag time and recovery); type: physicochemical; conditions: Table 2
Experimental: This has traditionally been measured by visual inspection of the sample. However, that kind of measurement is very subjective and depending on the observer. Therefore, the application of a small molecule indicator probe is much more advantageous. […] Enzymol.
The constant t0 is the time needed to reach 50% of maximum fluorescence. The two important parameters describing fibril formation are the lag-time calculated by t0−2τ and the apparent rate constant kapp 1/τ.
Samples were prepared freshly before each assay. […] The pH of the sample was adjusted to the desired value using appropriate amounts of concentrated NaOH and HCl. Thioflavin T was added to the samples from a stock solution in H2O to a final concentration of 1 μM.
The plate was sealed with Scotch Pad (Qiagen).
Each run was initiated by incubating the plate at the assay temperature for 10 min. The plate was measured every 20 minutes for a desired period of time. Between each measurement, the plate was shaken and heated as described.
The supernatant was filtered through a 0.22 μm filter and an aliquot was transferred to a HPLC vial.
The measurement points were saved in Microsoft Excel format for further processing and curve drawing and fitting was performed using GraphPad Prism. […] The data set may be fitted to Eq. (1).

glucagon receptor, sequence (P47871 26-477): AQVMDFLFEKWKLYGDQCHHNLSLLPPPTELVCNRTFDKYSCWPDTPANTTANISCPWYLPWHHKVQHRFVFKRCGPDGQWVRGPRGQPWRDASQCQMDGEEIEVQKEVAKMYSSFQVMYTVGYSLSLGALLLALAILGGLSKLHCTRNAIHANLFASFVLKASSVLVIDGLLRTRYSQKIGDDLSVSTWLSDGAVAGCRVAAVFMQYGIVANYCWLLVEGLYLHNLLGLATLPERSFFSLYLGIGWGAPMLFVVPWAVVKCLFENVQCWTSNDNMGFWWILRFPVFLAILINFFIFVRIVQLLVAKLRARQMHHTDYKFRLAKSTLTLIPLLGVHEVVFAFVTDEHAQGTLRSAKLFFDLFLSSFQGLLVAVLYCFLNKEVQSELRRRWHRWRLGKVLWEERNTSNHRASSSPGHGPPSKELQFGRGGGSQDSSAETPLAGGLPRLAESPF

Row | Compound | EC50 [1] [nM] | ThT assay [Lag time] [2] [h]
1 | CC(C)C[C@H](NC(=O)[C@H](Cc1ccc(O)cc1)NC(=O)[C@H](CCCCN)NC(=O)[C@H](CO)NC(=O)[C@H](Cc1ccc(O)cc1)NC(=O)[C@H](CC(=O)O)NC(=O)[C@H](CO)NC(=O)[C@@H](NC(=O)[C@H](Cc1ccccc1)NC(=O)[C@@H](NC(=O)CNC(=O)[C@H](CCC(N)=O)NC(=O)[C@H](CO)NC(=O)[C@@H](N)Cc1c[nH]cn1)[C@@H](C)O)[C@@H](C)O)C(=O)N[C@@H](CC(=O)O)C(=O)N[C@@H](CO)C(=O)N[C@@H](CCCCN)C(=O)N[C@@H](CCCCN)C(=O)N[C@@H](C)C(=O)N[C@@H](CCC(N)=O)C(=O)N[C@@H](CCC(=O)O)C(=O)N[C@@H](Cc1ccccc1)C(=O)N[C@H](C(=O)N[C@@H](CCCCNC(=O)COCCOCCNC(=O)COCCOCCNC(=O)[C@H](CCC(=O)O)NC(=O)CCCCCCCCCCCCCCCCC(=O)O)C(=O)N[C@@H](Cc1c[nH]c2ccccc12)C(=O)N[C@@H](CC(C)C)C(=O)N[C@@H](CC(C)C)C(=O)N[C@@H](CO)C(=O)N[C@H](C(=O)O)[C@@H](C)O)C(C)C [Example 72, N^ε24-[2-[2-[2-[[2-[2-[2-[[(2S)-4-carboxy-2-(17-carboxyheptadecanoylamino)butanoyl]amino]ethoxy]ethoxy]acetyl]amino]ethoxy]ethoxy]acetyl]-[Lys17,Lys18,Glu21,Lys24,Leu27,Ser28]-Glucagon] (H-HSQGTFTSDYSKYLDSKKAQEFVK([AEEA-AEEA-Glu-C18 diacid])WLLST-OH) | 0.057 | 
2 | CC(C)C[C@H](NC(=O)[C@H](Cc1ccc(O)cc1)NC(=O)[C@H](CCCCN)NC(=O)[C@H](CO)NC(=O)[C@H](Cc1ccc(O)cc1)NC(=O)[C@H](CC(=O)O)NC(=O)[C@H](CO)NC(=O)[C@@H](NC(=O)[C@H](Cc1ccccc1)NC(=O)[C@@H](NC(=O)CNC(=O)[C@H](CCC(N)=O)NC(=O)[C@H](CO)NC(=O)[C@@H](N)Cc1c[nH]cn1)[C@@H](C)O)[C@@H](C)O)C(=O)N[C@@H](CC(=O)O)C(=O)N[C@@H](CO)C(=O)N[C@@H](CCCCN)C(=O)N[C@@H](CCCCN)C(=O)N[C@@H](C)C(=O)N[C@@H](CCC(N)=O)C(=O)N[C@@H](CCC(=O)O)C(=O)N[C@@H](Cc1ccccc1)C(=O)N[C@H](C(=O)N[C@@H](CCCNC(=O)COCCOCCNC(=O)COCCOCCNC(=O)CC[C@H](NC(=O)CCCCCCCCCCCCCCCCC(=O)O)C(=O)O)C(=O)N[C@@H](Cc1c[nH]c2ccccc12)C(=O)N[C@@H](CC(C)C)C(=O)N[C@@H](CC(C)C)C(=O)N[C@@H](CO)C(=O)N[C@H](C(=O)O)[C@@H](C)O)C(C)C [Example 73, N^ε24-[2-[2-[2-[[2-[2-[2-[[(4S)-4-carboxy-4-(17-carboxyheptadecanoylamino)butanoyl]amino]ethoxy]ethoxy]acetyl]amino]ethoxy]ethoxy]acetyl]-[Lys^17,Lys^18,Glu^21,Orn^24,Leu^27,Ser^28]-Glucagon] (H-HSQGTFTSDYSKYLDSKKAQEFV[Orn]([AEEA-AEEA-γGlu-C18 diacid])WLLST-OH) | 0.036 | 
3 | CC(C)C[C@H](NC(=O)[C@H](Cc1ccc(O)cc1)NC(=O)[C@H](CCCCN)NC(=O)[C@H](CO)NC(=O)[C@H](Cc1ccc(O)cc1)NC(=O)[C@H](CC(=O)O)NC(=O)[C@H](CO)NC(=O)[C@@H](NC(=O)[C@H](Cc1ccccc1)NC(=O)[C@@H](NC(=O)CNC(=O)[C@H](CCC(N)=O)NC(=O)[C@H](CO)NC(=O)[C@@H](N)Cc1c[nH]cn1)[C@@H](C)O)[C@@H](C)O)C(=O)N[C@@H](CC(=O)O)C(=O)N[C@@H](CO)C(=O)N[C@@H](CCCCN)C(=O)N[C@@H](CCCCN)C(=O)N[C@@H](C)C(=O)N[C@@H](CCC(N)=O)C(=O)N[C@@H](CCC(=O)O)C(=O)N[C@@H](Cc1ccccc1)C(=O)N[C@H](C(=O)N[C@@H](CCC(N)=O)C(=O)N[C@@H](Cc1c[nH]c2ccccc12)C(=O)N[C@@H](CC(C)C)C(=O)N[C@@H](CC(C)C)C(=O)N[C@@H](CC(N)=O)C(=O)N[C@H](C(=O)O)[C@@H](C)O)C(C)C [[K^17, K^18, E^21, L^27] Glucagon, H—HSQGTFTSDYSKYLDSKKAQEFVQWLLNT—OH, reference compound] (H-HSQGTFTSDYSKYLDSKKAQEFVQWLLNT-OH) | 0.003 | 1

Reference: patent US20170051034A1 (Novo Nordisk A/S, priority 2010, published 2017)
